Laboratory results from patent US20260125375A1 (Pfizer Inc., priority 2022, published 2026).

Assays:
[1] = target: T1, C-CBL (residues 46-435) (Homo sapiens, UniProt P22681); experiment: Ligand Displacement Assay (LDA), HTRF competitive binding against BODIPY-labeled fluorescent tracer, C-CBL; details: geometric mean of the number of tests, read-out: C-CBL Ki (nM) GMean
T1 construct: Purified CBL-B (residues 36-427) and C-CBL (residues 46-435) proteins from baculovirus-infected insect cells; made in house; host or cells: baculovirus-infected insect cells
T1 sequence (P22681 46-435): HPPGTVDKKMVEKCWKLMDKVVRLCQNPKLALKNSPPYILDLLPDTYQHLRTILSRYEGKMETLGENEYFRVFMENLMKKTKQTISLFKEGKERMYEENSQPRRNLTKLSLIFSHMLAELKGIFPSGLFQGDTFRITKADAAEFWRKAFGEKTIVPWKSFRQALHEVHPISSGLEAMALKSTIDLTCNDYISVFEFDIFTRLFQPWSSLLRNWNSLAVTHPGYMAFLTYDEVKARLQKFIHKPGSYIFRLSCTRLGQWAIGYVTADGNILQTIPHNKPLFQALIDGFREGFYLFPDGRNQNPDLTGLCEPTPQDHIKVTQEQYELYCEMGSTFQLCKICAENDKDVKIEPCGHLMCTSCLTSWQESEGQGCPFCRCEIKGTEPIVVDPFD
How it was run: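 First, the insect-cell-expressed protein is biotinylated at its amino-terminal AviTag with BirA and coupled to SA-Tb. Next, the tracer KD is determined for each protein. Finally, compounds are titrated three-fold in duplicate […], at 2% DMSO, and Ki is reported as a geometric mean.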

[2] = target: T2, C-CBL (46-435) (Homo sapiens, UniProt P22681); experiment: Surface Plasmon Resonance (SPR) assay, binding affinity and kinetics, C-CBL; details: SPR at 10° C., biotinylated C-CBL (46-435) on streptavidin chip; geometric mean; read-out: C-CBL SPR Kd (nM) GMean
T2 construct: N-terminal biotinylated WT CBL-B (36-427) and C-CBL (46-435) were captured on a streptavidin (SA) coated sensor chip
T2 sequence (P22681 46-435): T1 sequence (P22681 46-435)
How it was run: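 Biotinylated WT CBL-B (36-427) or C-CBL (46-435) captured on streptavidin chip (~5000–6000 RU); binding at 10° C in HEPES buffer pH 7.2 with 2% DMSO. Multi-cycle: 2-fold, 10-point series from 10 or 100 μM, 90 s association. Single-cycle: 3-fold, 6-point, 0.001–1 μM, 120 s association, >5400 s dissociation.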

SMILES | Ki [1] | Kd [2]
C[C@H](N[C@@H]1CCOC1)c1nc(C(F)(F)F)cc2c(-c3cccc([C@H](c4nncn4C)C4CCC4)c3)n[nH]c12 (single isomer, unassigned) [Example D2] | 77.1 nM | 108 nM
C[C@@H](N[C@@H]1CCOC1)c1nc(C(F)(F)F)cc2c(-c3cccc([C@H](c4nncn4C)C4CCC4)c3)n[nH]c12 (single isomer, unassigned) [Example D3] | 69.7 nM | 124 nM
C[C@@H](c1nc(C(F)(F)F)cc2c(-c3cccc(C4(Cc5nncn5C)COC4)c3)n[nH]c12)N1CCC(F)(F)C1 (single isomer, unassigned) [Example D5] | 148 nM | 209 nM
C[C@H](c1nc(C(F)(F)F)cc2c(-c3cccc(C4(Cc5nncn5C)COC4)c3)n[nH]c12)N1CCC(F)(F)C1 (single isomer, unassigned) [Example D6] | 21 nM | 31 nM
C[C@@H](c1nc(C(F)(F)F)cc2c(-c3cccc(C4(Cc5nncn5C)COC4)c3)n[nH]c12)N1C[C@H](F)[C@@H](F)C1 (single isomer, unassigned) [Example D7] | 28.1 nM | 36 nM
C[C@H](c1nc(C(F)(F)F)cc2c(-c3cccc(C4(Cc5nncn5C)COC4)c3)n[nH]c12)N1C[C@H](F)[C@@H](F)C1 (single isomer, unassigned) [Example D8] | 113 nM | 177 nM
C[C@@H](c1nc(C(F)(F)F)cc2c(-c3cccc(C4(Cc5nncn5C)COC4)c3)n[nH]c12)N1CC[C@@H](F)C1 (single isomer, unassigned) [Example D9] | 71.8 nM | 96 nM
C[C@H](c1nc(C(F)(F)F)cc2c(-c3cccc(C4(Cc5nncn5C)COC4)c3)n[nH]c12)N1CC[C@@H](F)C1 (single isomer, unassigned) [Example D10] | 25 nM | 42 nM
C[C@H]1CN([C@@H](C)c2nc(C(F)(F)F)cc3c(-c4cccc(C5(Cc6nncn6C)COC5)c4)n[nH]c23)CCO1 (single isomer, unassigned) [Example D11] | 27.2 nM | 47.9 nM
C[C@H](c1nc(C(F)(F)F)cc2c(-c3cccc(C4(Cc5nncn5C)COC4)c3)n[nH]c12)N1CCO[C@@H](C)C1 (single isomer, unassigned) [Example D12] | 52.9 nM | 46 nM
C[C@@H]1CCCN([C@@H](C)c2nc(C(F)(F)F)cc3c(-c4cccc(C5(Cc6nncn6C)COC5)c4)n[nH]c23)C1 (single isomer, unassigned) [Example D13] | 53.6 nM | 51.2 nM
C[C@@H]1CCCN([C@H](C)c2nc(C(F)(F)F)cc3c(-c4cccc(C5(Cc6nncn6C)COC5)c4)n[nH]c23)C1 (single isomer, unassigned) [Example D14] | 183 nM | 140 nM
C[C@H](N[C@@H]1CCC[C@@H]1O)c1nc(C(F)(F)F)cc2c(-c3cccc([C@H](c4nncn4C)C4CCC4)c3)n[nH]c12 (single isomer, unassigned) [Example D15] | 1 nM | 6.2 nM
C[C@@H](N[C@@H]1CCC[C@@H]1O)c1nc(C(F)(F)F)cc2c(-c3cccc([C@H](c4nncn4C)C4CCC4)c3)n[nH]c12 (single isomer, unassigned) [Example D16] | 24.5 nM | 43.1 nM
C[C@H](O)CN[C@@H](C)c1nc(C(F)(F)F)cc2c(-c3cccc([C@H](c4nncn4C)C4CCC4)c3)n[nH]c12 (single isomer, unassigned) [Example D19] | 12.4 nM | 17.2 nM
C[C@@H](N[C@H]1CC[C@@H]1O)c1nc(C(F)(F)F)cc2c(-c3cccc([C@H](c4nncn4C)C4CCC4)c3)n[nH]c12 (single isomer, unassigned) [Example D22] | 5.8 nM | 9.8 nM

SMILES | Ki [1] | Kd [2]
C[C@H](N[C@@H]1CC[C@@H]1O)c1nc(C(F)(F)F)cc2c(-c3cccc([C@H](c4nncn4C)C4CCC4)c3)n[nH]c12 (single isomer, unassigned) [Example D28] | 0.6 nM | 2.2 nM
C[C@H](NC1CC[C@H]1O)c1nc(C(F)(F)F)cc2c(-c3cccc([C@H](c4nncn4C)C4CCC4)c3)n[nH]c12 (single isomer, unassigned) [Example D30] | 5.1 nM | 5.6 nM
C[C@H](NC1CC(F)(F)C1)c1nc(C(F)(F)F)cc2c(-c3cccc([C@H](c4nncn4C)C4CCC4)c3)n[nH]c12 (single isomer, unassigned) [Example D90] | 147 nM | 77.4 nM
C[C@@H](NC1CC(F)(F)C1)c1nc(C(F)(F)F)cc2c(-c3cccc([C@H](c4nncn4C)C4CCC4)c3)n[nH]c12 (single isomer, unassigned) [Example D91] | 66.8 nM | 35.4 nM
Cn1cnnc1[C@@H](c1cccc(-c2n[nH]c3c(CN[C@H]4CCC(F)(F)C4)nc(C(F)(F)F)cc23)c1)C1CCC1 (single isomer, unassigned) [Example G1] | 118 nM | 60.8 nM
Cn1cnnc1[C@@H](c1cccc(-c2n[nH]c3cnc(C(F)(F)F)cc23)c1)C1CCC1 [Example A1, 3-{3-[(R)-cyclobutyl(4-methyl-4H-1,2,4-triazol-3-yl)methyl]phenyl}-5-(trifluoromethyl)-1H-pyrazolo[3,4-c]pyridine] | 681 nM | 931 nM
Cn1cnnc1CC1(c2cccc(-c3n[nH]c4cnc(C(F)(F)F)cc34)c2)COC1 [Example B1, 3-(3-(3-((4-methyl-4H-1,2,4-triazol-3-yl)methyl)oxetan-3-yl)phenyl)-5-(trifluoromethyl)-1H-pyrazolo[3,4-c]pyridine] | 283 nM | 450 nM
Cn1cnnc1CC1(c2cccc(-c3n[nH]c4ncc(C(F)(F)F)cc34)c2)COC1 [Example B3, 3-(3-{3-[(4-methyl-4H-1,2,4-triazol-3-yl)methyl]oxetan-3-yl}phenyl)-5-(trifluoromethyl)-1H-pyrazolo[3,4-b]pyridine] | 363 nM | 861 nM
Cn1cnnc1[C@@H](c1cccc(-c2n[nH]c3c(CN[C@@H]4CCC[C@@H]4O)nc(C(F)(F)F)cc23)c1)C1CCC1 [Example C1, (1S,2R)-2-({[3-{3-[(R)-cyclobutyl(4-methyl-4H-1,2,4-triazol-3-yl)methyl]phenyl}-5-(trifluoromethyl)-1H-pyrazolo[3,4-c]pyridin-7-yl]methyl}amino)cyclopentan-1-ol] | 7.1 nM | 7.6 nM
Cn1cnnc1[C@@H](c1cccc(-c2n[nH]c3c(CN[C@H]4CCC[C@@H]4O)nc(C(F)(F)F)cc23)c1)C1CCC1 [Example C4, (1S,2S)-2-({[3-{3-[(R)-cyclobutyl(4-methyl-4H-1,2,4-triazol-3-yl)methyl]phenyl}-5-(trifluoromethyl)-1H-pyrazolo[3,4-c]pyridin-7-yl]methyl}amino)cyclopentan-1-ol] | 47.4 nM | 49.9 nM
C[C@H]1CN(Cc2nc(C(F)(F)F)cc3c(-c4cccc([C@H](c5nncn5C)C5CCC5)c4)n[nH]c23)CCO1 [Example C6, 3-{3-[(R)-cyclobutyl(4-methyl-4H-1,2,4-triazol-3-yl)methyl]phenyl}-7-{[(2S)-2-methylmorpholin-4-yl]methyl}-5-(trifluoromethyl)-1H-pyrazolo[3,4-c]pyridine] | 256 nM | 102 nM
C[C@H]1CCCN(Cc2nc(C(F)(F)F)cc3c(-c4cccc([C@H](c5nncn5C)C5CCC5)c4)n[nH]c23)C1 [Example C7, 3-{3-[(R)-cyclobutyl(4-methyl-4H-1,2,4-triazol-3-yl)methyl]phenyl}-7-{[(3S)-3-methylpiperidin-1-yl]methyl}-5-(trifluoromethyl)-1H-pyrazolo[3,4-c]pyridine] | 53.1 nM | 47.7 nM
C[C@H](N[C@H]1CCC(F)(F)C1)c1nc(C(F)(F)F)cc2c(-c3cccc([C@H](c4nncn4C)C4CCC4)c3)n[nH]c12 [Example C8] | 3 nM | 5 nM
C[C@@H](N[C@H]1CCC(F)(F)C1)c1nc(C(F)(F)F)cc2c(-c3cccc([C@H](c4nncn4C)C4CCC4)c3)n[nH]c12 [Example C9] | 85.2 nM | 22.1 nM
CC(NC1CCCC1)c1nc(C(F)(F)F)cc2c(-c3cccc([C@H](c4nncn4C)C4CCC4)c3)n[nH]c12 (stereo partly drawn) [Example C14, N-{(1ξ)-1-[3-{3-[(R)-cyclobutyl(4-methyl-4H-1,2,4-triazol-3-yl)methyl]phenyl}-5-(trifluoromethyl)-1H-pyrazolo[3,4-c]cyclopen-7-yl]ethyl}cyclopentanamine] | 2.3 nM | 4.1 nM
C[C@@H](NC1CCC1)c1nc(C(F)(F)F)cc2c(-c3cccc(C4(Cc5nncn5C)COC4)c3)n[nH]c12 [Example C16] | 49.3 nM | 83.4 nM
